How the values were obtained:
[1] = system: Rye; assay: POST synergy treatments in pots; assay type: in vivo, ryegrass; details: POST emergence to 10 cm plants
Experimental: (§1) Potted plants. These assays are conducted in pots using a commercial potting media to establish broadleaf and grass plants with at least one true leaf. The cotyledons are not treated in these assays.

[2] = system: Timothy; assay: POST synergy treatments in pots; assay type: in vivo; details: POST emergence to 10 cm plants
Experimental: as §1

[3] = system: Rye; assay: PRE germination synergy in Petri dishes; assay type: in vivo, ryegrass; details: preemergence, Topramezone / Mentha spicata, rate in label
Experimental: (§2) Petri Dish. Seed impacts. Dishes layered with filter paper and filtered water added with various broadleaf and unwanted grass species to initiate germination. Conducted in the dark at 75/60° F. day night temperature with relative humidity at 50%. […] The percent volume/volume of extract to water carrier is summarized above. The amount in mg/ml was calculated based on the percent of extract mixed with water. […] Seeds have water added every two days. […] Plates are exposed to 12/12 hour day/night cycle after 7 days.

[4] = system: Timothy; assay: PRE germination synergy in Petri dishes; assay type: in vivo; details: preemergence, Topramezone / Mentha spicata, rate in label
Experimental: as §2

[5] = system: seedlings; assay: PRE germination synergy in Petri dishes, bleaching; assay type: in vivo, ryegrass and Timothy; details: preemergence, Topramezone / Mentha spicata, rate in label
Experimental: as §2

[6] = system: 2-leaf corn; assay: Disrupting metabolism of herbicide resistant plants in pots; assay type: in vivo; details: POST to 2-leaf corn, Topramezone / Mentha piperata, rate in label
Text: (§3) Testing involves the same methods as listed above but with weeds/plants which are resistant to herbicides. An example plant is corn, which uses a cytochrome P450 enzyme(s) to detoxify certain commercially available herbicides (Ex. mesotrione). Corn also uses a glutathione S-transferase detoxification system for other commercially available herbicides (ex. Atrazine). Still other examples of herbicide detoxification include “Phase I” reactions—dechlorination, hydroxylation, decarboxylation, dealkylation, oxidation/reduction, and hydrolysis are the initial chemical reactions that occur. These reactions detoxify the herbicide and predispose the resultant metabolites to conjugation. “Phase II” reactions are another example, by conjugation with sugars, amino acids or natural plant constituents (metabolites are strongly bound). Also, “Phase II” I reactions are unique to plants and consist of secondary conjugation reactions or the formation of insoluble bound residues. Most crops grown in the world utilize detoxification, mixed function oxidase, enzymes to protect themselves from herbicides and other xenobiotics. Weeds also utilize this system of enzymes, as well as other biochemical actions, to prevent herbicides from damaging or killing the weeds. […]

[7] = system: Timothy; assay: Disrupting metabolism of herbicide resistant plants in pots, green loss; assay type: in vivo; details: POST, Topramezone / Mentha piperata, rate in label
Text: as §3

[8] = system: Rye; assay: PRE synergy of weed control in pots/soil; details: two weeks after planting, Pendimethalin / Mentha piperata, rate in label
Experimental: (§4) Potted soil. Commercial potting mix is used as a base with approximately 2 inches of 5% organic matter soil used on the top. Seeds are sown in the soil between 1 cm and 2.5 cm (as indicated by best practices for each plant-seed), filtered water added with various broadleaf and grass species to initiate germination. Conducted in the dark at 75/60 F day night temperature with relative humidity at 50%. Seeds are allowed to imbibe water for 24 hours. […] Seeds, wells have water added every two days. Seeds are monitored for 14 days following treatment. Visual rating for germination, radicle, shoot, and root elongation are recorded. Commercial herbicides are also used at the US label recommended rate for treatment as a positive control.

[9] = system: Timothy; assay: PRE synergy of weed control in pots/soil; details: two weeks after planting, Pendimethalin / Mentha piperata, rate in label
Experimental: as §4

[10] = Glyphosate / Mentha piperata, 7 days
[11] = Glyphosate / Mentha piperata, 14 days
[12] = Atrazine / Mentha piperata, rate in label

O=C(O)CNCP(=O)(O)O [Glyphosate 1x alone, Glyphosate]
% control Rye 7 days [1, 10]: 0%
% control Rye 14 Days [1, 11]: 85%
% control Timothy 7 days [2, 10]: 0%
% control Timothy 14 Days [2, 11]: 90%

Cc1c(C(=O)c2cnn(C)c2O)ccc(S(C)(=O)=O)c1C1=NOCC1 [Topro 1x alone, Topramezone]
PRE Germination % control Rye [3]: 50%
PRE Germination % control Timothy [4]: 60%
% bleaching of seedlings [5]: 50%
% Control 14 Day [6]: 0%
% Green loss Timothy 14 Day [7]: 5%

CCNc1nc(Cl)nc(NC(C)C)n1 [Atrazine 1x alone, Atrazine]
% control Rye [1, 12]: 55%
% control Timothy [2, 12]: 60%

CCC(CC)Nc1c([N+](=O)[O-])cc(C)c(C)c1[N+](=O)[O-] [Pendi 1x, Pendimethalin]
% control Rye [8]: 37%
% control Rye ([8]; listed as Pendi 2x): 57%
% control Rye ([8]; listed as Pendi 4x): 92%
% control Timothy [9]: 50%
% control Timothy ([9]; listed as Pendi 2x): 75%
% control Timothy ([9]; listed as Pendi 4x): 83%

From patent US20240016161A1, “HERBICIDAL MENTHA PLANT EXTRACT COMPOSITIONS AND METHODS OF USING SAME” (Harpe Bioherbicide Solutions Inc., priority 2020, published 2024)
